Tests used:
[1] = target: FLII12Pglu700μ-δ6 glucose nanosensor (Escherichia coli, UniProt P0AEE5); type: binding; conditions: read-out: Kd, affinity constant of nanosensor; used for theoretical saturation curve
Procedure: (A) Theoretical curve of glucose-induced FRET changes of FLII12Pglu700μ-δ6. […] Light gray shaded area indicates 10-90% confidence range of FLII12Pglu700μ-δ6 detection range, the dark gray shaded area indicates 20-80% confidence range. (B) Effect of the variation in ratio data (SD) on the determination of glucose concentrations. […] The calculated glucose concentration from the average of ratio data was set as 100%. In vivo glucose concentration was calculated from the equation: [gluc]vivo=Kd×(Δr−1)/(ΔRmax−Δr) with [G], glucose concentration; Kd, affinity constant of nanosenor; Δr, partial ratio change; ΔRmax, maximum ratio change. (C) Examples of in vivo glucose concentration dynamics upon cell perfusion and nanosenor range of FLII12Pglu700μ-δ6. The glucose concentration dynamics within the nanosenor range report differences in 1) accumulation rate, 2) elimination rate, 3) steady-state level, and 4) delay in nanosenor response. Gray lines indicate real in vivo glucose concentration dynamics and black lines indicate the nanosenor saturation of FLII12Pglu700μ-δ6. (D) In vivo glucose concentration-time plot (black line) with ratio ±SD and confidence range (grey lines) of FLII12Pglu700μ-δ6.

[2] = target: glucose nanosensor (not named in Example 9); conditions: read-out: affinity constant for glucose
Procedure: The confidence range for calculation of intracellular glucose concentrations is determined by the quality of the recorded sensor response data. As a rule of thumb, data with standard deviations off ±2.5% and ±5% can be interpreted between 10% and 90% and between 20% and 80% saturation, respectively. Monitoring the sensor response in presence of alternating analyte concentrations yields information about transport and metabolism in the targeted subcellular compartment from (1) the intracellular accumulation rate upon addition of the analyte, which is composed of influx rate minus metabolism and export rates, (2) the elimination rate when the analyte is removed, which is composed of export plus metabolism minus influx, (3) the steady state level of the sensor response, in which influx equals metabolism and efflux, and (4) the time delay before a sensor response can be recorded, which represents differences in influx rates or metabolism.

[3] = tested on: E. coli L-arabinose binding protein AraF, unmodified; conditions: tryptophan fluorescence spectroscopy, read-out: affinity (Kd); cited from earlier work
[4] = target: FLIParaF.Ec-200n, FRET nanosensor: E. coli K12 AraF (L-arabinose binding protein) fused between eCFP and Venus (Escherichia coli, UniProt P02924); assay: In vitro FRET titration of purified arabinose nanosensor; conditions: D/L-arabinose; apparent; purified sensor, 20 mM MOPS pH 7.0, Venus/eCFP emission ratio 528/485 nm, single-site isotherm
FLIParaF.Ec-200n, FRET nanosensor: E. coli K12 AraF (L-arabinose binding protein) fused between eCFP and Venus, sequence (P02924 24-329): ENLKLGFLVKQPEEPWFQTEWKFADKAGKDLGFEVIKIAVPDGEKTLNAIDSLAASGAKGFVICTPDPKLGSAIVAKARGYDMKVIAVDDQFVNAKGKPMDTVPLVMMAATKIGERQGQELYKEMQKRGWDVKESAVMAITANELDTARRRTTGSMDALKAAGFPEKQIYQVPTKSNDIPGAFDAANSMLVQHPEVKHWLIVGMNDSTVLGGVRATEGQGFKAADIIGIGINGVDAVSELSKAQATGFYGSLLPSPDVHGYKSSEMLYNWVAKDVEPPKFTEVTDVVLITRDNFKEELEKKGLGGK
Source text: The araF gene (EMBL: K00420) was amplified from Escherichia coli K12 genomic DNA using homologous primers, resulting in a PCR product that consisted of araF without stopcodon flanked by phage lambda attB recombination sites. The araF gene was fused between eCFP and Venus coding sequences of pGW1 through pDONR (Invitrogen) using […] (Invitrogen), respectively. The final construct was denoted pGW1araF.Ec and the correct sequence of the araF gene was verified by DNA sequencing (Sequetech). The gene product encoded on pGW1araF.Ec was denoted FLIParaF.Ec-200n.
The eCFP emission used for the ratio calculation was determined at 485 nm. Protein was diluted to give Venus/eYFP readouts of 20,000 to 30,000 at a manual gain between 70-75. By using the change in FRET ratio upon binding of ligand, affinity constants (Kd) were determined by fitting the titration curves to a single-site-binding isotherm:
R=Rapo+(Rsat−Rapo)·(n·[L])/(Kd+[L])
with [L], ligand concentration; n, number of equal binding sites; R, ratio; Rapo, ratio in the absence of ligand; and Rsat, ratio at saturation with ligand. Three independent protein preparations were analyzed and each protein preparation was analyzed in triplicate.

FLII12Pglu700μ-δ6 glucose nanosensor, sequence (P0AEE5 24-332 limits assumed): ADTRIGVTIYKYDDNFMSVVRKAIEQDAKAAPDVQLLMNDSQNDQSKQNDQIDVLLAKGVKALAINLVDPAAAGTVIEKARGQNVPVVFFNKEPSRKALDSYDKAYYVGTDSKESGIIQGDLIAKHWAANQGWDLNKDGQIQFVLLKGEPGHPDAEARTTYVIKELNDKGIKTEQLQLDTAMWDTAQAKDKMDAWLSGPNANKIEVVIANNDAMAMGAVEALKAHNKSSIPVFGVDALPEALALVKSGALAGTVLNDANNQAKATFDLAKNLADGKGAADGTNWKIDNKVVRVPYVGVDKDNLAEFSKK

Structure (SMILES): OC[C@H]1OC(O)[C@H](O)[C@@H](O)[C@@H]1O (stereo partly shown) [glucose]
- Kd [1]: 660 µM
- Kd [2]: 600 µM

Structure (SMILES): OC1OC[C@H](O)[C@H](O)[C@H]1O (stereo partly drawn) [L-arabinose]
- Kd [3]: 0.098 ± 0.033 µM

Structure (SMILES): OC1COC(O)C(O)C1O (racemic) [D/L-arabinose]
- Kd [4]: 0.23 ± 0.018 µM

— patent US20120028265A1, “METHODS OF USING RET NANOSENSORS” (priority 2007, published 2012)
